Earlier results in patent EP0137640A1, “Chain extended analogues of methotrexate and aminopterin” (DANA-FARBER CANCER INSTITUTE, INC., priority 1983, dated 1985).

System: carboxypeptidase Gl
Conditions: as described by Chabner et al. (1972) Nature, 239, 395

For `CN(Cc1cnc2nc(N)nc(N)c2n1)c1ccc(C(=O)N[C@@H](CCC(=O)O)C(=O)O)cc1` [MTX, 4-amino-4-deoxy-N^10-methyl-pteroylglutamic acid], the “cleavage by carboxypeptidase Gl” value is listed as “rapidly cleaved”.
